Experimental data taken from BindingDB's records for doi:10.1021/jm025502x (2002).

Assays:
[1] = In vitro inhibitory concentration against Methionyl-tRNA synthetase in a pyrophosphate exchange assay
[2] = target: Methionyl-tRNA synthetase (Staphylococcus aureus); test: In vitro inhibitory concentration against Staphylococcus aureus Methionyl-tRNA synthetase

IC50 [1] [µM] | IC50 [2] [µM] | Compound
0.5 | – | Oc1cc(NCCCNCc2ccc(Cl)c(Cl)c2)nc2ccccc12 [2-[3-(3,4-Dichloro-benzylamino)-propylamino]-1H-quinolin-4-one]
0.001 | – | Oc1cc(NCCCNC2CCNc3c(Br)cc(Br)cc32)nc2ccccc12 (stereo not drawn) [2-[3-(6,8-Dibromo-1,2,3,4-tetrahydro-quinolin-4-ylamino)-propylamino]-1H-quinolin-4-one]
– | 0.012 | CCc1cc(I)c2c(c1)C(NCCCNc1cc(O)c3ccccc3n1)CCN2 (stereo not drawn) [2-[3-(6-Ethyl-8-iodo-1,2,3,4-tetrahydro-quinolin-4-ylamino)-propylamino]-1H-quinolin-4-one]
